The values below come from patent US10189843B2, “Fused pyrazole derivative having autotaxin inhibitory activity” (The University of Tokyo, priority 2014, dated 2019).

This assay has as its target T1, Human autotaxin enzyme (Homo sapiens, UniProt Q13822).
T1 construct: purchased R&D System
Briefly: Evaluation of autotaxin inhibitor, Method C (18:0 Lyso PC substrate, choline assay, Resorufin fluorescence). The class given is biochemical. As to conditions: Method C (Test Example 3), read-out: Inhibitory activity (enzyme inhibitory activity, IC50). In short, it runs like this:
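Recombinant human autotaxin with compound and 200 μM 18:0 Lyso PC (stock) in Tris-HCl pH 7.5, NaCl, MgCl2, Triton X-100, 2 h RT. Released choline detected via choline oxidase/peroxidase/Amplex-type reagent, 20 min, resorufin fluorescence 531/598 nm; % inhibition vs no-compound and no-enzyme controls, concentration-response curve.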

The IC50 is the concentration that inhibits the measured activity by half.

As to `CCCCC1CN(Cc2ccncc2)C(=O)c2cc(-c3ccc(Cl)cc3)nn21` (stereo not shown) [Compound I-0257], the IC50 is 0.1 to 1 µM.
Next, `CC(=O)Nc1cc(Cl)cc(CO)c1-c1cc2n(n1)[C@@H](C)CN(Cc1ccc(C#N)cc1)C2=O` [Compound I-0347]: 0.01 to 0.1 µM; `CCCCCC1CN(CC(=O)N2CCCCC2CCN2CCOCC2)C(=O)c2cc(-c3ccc(Cl)cc3)nn21` (stereo not shown) [Compound I-0109]: at least 1 µM.
As for `CCCCCC1CN(CC(=O)N2CCC(C(=O)OCC)CC2)C(=O)c2cc(-c3ccc(Cl)cc3)nn21` (stereo not shown) [Compound I-0004], the IC50 lay within 0.01 to 0.1 µM.
The value for `CCCCC1CN(CC(=O)N(CC)CCC#N)C(=O)c2cc(-c3ccc(Cl)cc3)nn21` (stereo not shown) [Compound I-0214] was 0.01 to 0.1 µM; that for `CCCCCC1CN(CC(=O)N[C@H](C(=O)O)c2ccccc2)C(=O)c2cc(-c3ccc(Cl)cc3)nn21` (stereo partly shown) [Compound I-0069] was below 0.01 µM.
With `CCCCC1CN(CC(=O)N2CCC(C(=O)OC)CC2)C(=O)c2cc(-c3ccc(Cl)cc3)nn21` (stereo not shown) [Compound I-0279], the IC50 lay within 0.01 to 0.1 µM.
